# Data reported in patent publication US8791132B2, “Compounds and methods for treatment of hypertension” (Medivation Technologies, Inc., priority 2011, dated 2014).
# Where two headings read alike, the source gives them in different places.
# Columns and labels:
# [1] = target: T1, human recombinant adrenergic α2B receptor (Homo sapiens, UniProt P18089); assay: Radioligand binding, adrenergic α2B ([3H]Rauwolscine)
# T1 construct: expressed in transfected cells; host or cells: CHO-K1
# T1 sequence (P18089 1-450): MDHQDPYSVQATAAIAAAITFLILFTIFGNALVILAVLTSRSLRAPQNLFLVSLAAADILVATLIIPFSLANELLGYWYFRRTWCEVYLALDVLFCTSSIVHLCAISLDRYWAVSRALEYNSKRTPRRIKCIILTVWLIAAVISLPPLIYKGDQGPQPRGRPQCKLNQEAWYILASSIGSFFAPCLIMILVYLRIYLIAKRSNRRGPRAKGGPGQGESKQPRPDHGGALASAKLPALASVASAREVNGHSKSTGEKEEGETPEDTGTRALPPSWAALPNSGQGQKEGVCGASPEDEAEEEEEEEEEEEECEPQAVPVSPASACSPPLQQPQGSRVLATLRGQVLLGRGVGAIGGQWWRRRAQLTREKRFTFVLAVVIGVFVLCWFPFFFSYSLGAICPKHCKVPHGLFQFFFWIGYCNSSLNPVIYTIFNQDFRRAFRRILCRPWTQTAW
# How it was run: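 Membranes from CHO-K1 cells expressing human recombinant α2B, in 50 mM Tris-HCl pH 7.4, 12.5 mM MgCl2, 1 mM EDTA, 0.2% BSA, incubated with compound and 2.5 nM [3H]Rauwolscine, 60 min, 25 °C.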
# [2] = target: T2, human recombinant adrenergic α1D receptor (Homo sapiens, UniProt P25100); assay: Radioligand binding, adrenergic α1D ([3H]Prazosin)
# T2 construct: expressed in transfected cells; host or cells: HEK-293
# T2 sequence (P25100 1-572): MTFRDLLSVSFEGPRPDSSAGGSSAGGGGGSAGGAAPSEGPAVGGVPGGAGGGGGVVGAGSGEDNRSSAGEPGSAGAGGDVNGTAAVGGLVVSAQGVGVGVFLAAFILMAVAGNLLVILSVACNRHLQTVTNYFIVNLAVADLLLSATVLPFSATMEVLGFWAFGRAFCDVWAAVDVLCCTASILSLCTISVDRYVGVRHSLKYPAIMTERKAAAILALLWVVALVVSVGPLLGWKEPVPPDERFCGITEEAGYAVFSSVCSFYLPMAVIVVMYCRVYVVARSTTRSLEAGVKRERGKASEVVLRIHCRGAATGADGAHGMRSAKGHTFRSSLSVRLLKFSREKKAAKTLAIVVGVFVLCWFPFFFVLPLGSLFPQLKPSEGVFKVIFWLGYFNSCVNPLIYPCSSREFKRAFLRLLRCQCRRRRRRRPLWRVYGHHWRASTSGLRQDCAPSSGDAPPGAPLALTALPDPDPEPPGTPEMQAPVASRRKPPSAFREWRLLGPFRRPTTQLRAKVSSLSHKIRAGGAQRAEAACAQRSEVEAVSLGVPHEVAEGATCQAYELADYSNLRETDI
# Description: Compounds were incubated with 0.6 nM [3H]Prazosin for 60 min at 25° C. Non-specific binding was estimated in the presence of 10 μM phentolamine. Receptor proteins were filtered and washed, the filters were then counted to determine [3H]Prazosin specifically bound. […] Biochemical assay results are presented as the percent inhibition of specific binding in Table B1.
# [3] = target: T3, rat adrenergic α1B receptor (Rattus norvegicus, UniProt P15823); assay: Radioligand binding, adrenergic α1B ([3H]Prazosin)
# T3 construct: rat adrenergic α1B receptor obtained from Wistar Rat liver; from tissue; host or cells: Wistar rat liver
# T3 sequence (P15823 1-515): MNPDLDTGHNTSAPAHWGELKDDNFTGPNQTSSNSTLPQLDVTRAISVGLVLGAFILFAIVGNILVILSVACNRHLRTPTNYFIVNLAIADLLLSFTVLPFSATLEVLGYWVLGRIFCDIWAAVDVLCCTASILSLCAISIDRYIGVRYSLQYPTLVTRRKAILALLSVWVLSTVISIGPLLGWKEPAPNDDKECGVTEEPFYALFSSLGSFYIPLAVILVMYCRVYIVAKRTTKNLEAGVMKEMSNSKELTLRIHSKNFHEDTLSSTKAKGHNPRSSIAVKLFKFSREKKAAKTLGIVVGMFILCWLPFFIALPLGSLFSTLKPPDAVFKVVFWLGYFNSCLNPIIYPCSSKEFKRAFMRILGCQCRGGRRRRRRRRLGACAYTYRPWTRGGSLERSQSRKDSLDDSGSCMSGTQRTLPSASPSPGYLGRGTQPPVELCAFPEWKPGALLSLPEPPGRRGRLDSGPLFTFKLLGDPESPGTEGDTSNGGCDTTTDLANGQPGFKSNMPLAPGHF
# How it was run: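 Filter binding with Wistar rat liver α1B preparation: test compound plus 0.25 nM [3H]prazosin, 1 h at 25° C in modified Tris-HCl buffer pH 7.4.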
# [4] = target: T4, human recombinant adrenergic α2A receptor (Homo sapiens, UniProt P08913); assay: Radioligand binding, adrenergic α2A ([3H]MK-912); conditions: for inhibition at 0.03 µM: read-out: Percentage inhibition of ligand binding, Adrenergic α2A (0.03 μM), compound at 0.03 μM
# T4 construct: expressed in transfected cells; host or cells: insect Sf9 cells
# T4 sequence (P08913 1-465): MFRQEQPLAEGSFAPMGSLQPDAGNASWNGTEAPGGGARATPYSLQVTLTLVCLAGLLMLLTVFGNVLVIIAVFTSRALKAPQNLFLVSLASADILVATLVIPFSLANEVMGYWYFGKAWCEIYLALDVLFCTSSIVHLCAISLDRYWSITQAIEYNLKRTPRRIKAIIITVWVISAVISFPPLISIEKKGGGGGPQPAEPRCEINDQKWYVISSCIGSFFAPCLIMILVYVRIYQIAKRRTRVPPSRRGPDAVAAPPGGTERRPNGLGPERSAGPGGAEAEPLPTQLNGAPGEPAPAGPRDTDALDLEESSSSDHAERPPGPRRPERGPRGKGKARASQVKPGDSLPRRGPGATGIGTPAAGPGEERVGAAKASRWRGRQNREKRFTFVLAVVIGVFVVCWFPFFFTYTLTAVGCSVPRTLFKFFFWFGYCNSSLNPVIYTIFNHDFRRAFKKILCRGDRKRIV
# How it was run: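 Sf9-expressed receptor was incubated with compound for 60 min at 25 °C in modified Tris-HCl buffer, pH 7.4. Nonspecific binding was taken as that remaining with 10 μM WB-4101.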
# [5] = compound at 0.1 μM, [3H]Prazosin, repeat assays, each datapoint shown, read-out: Percentage inhibition of ligand binding, Adrenergic α1D
# [6] = read-out: Percentage inhibition of ligand binding, Adrenergic α2B (0.03 μM), compound at 0.03 μM, [3H]Rauwolscine, repeat datapoints each shown
# [7] = read-out: Percentage inhibition of ligand binding, Adrenergic α2B (0.1 μM), compound at 0.1 μM, [3H]Rauwolscine, repeat datapoints each shown
# [8] = read-out: Percentage inhibition of ligand binding, Adrenergic α1B (0.1 μM), compound at 0.1 μM, [3H]Prazosin, repeat datapoints each shown
# [9] = compound at 0.03 μM, [3H]Rauwolscine, repeat assays, each datapoint shown, read-out: Percentage inhibition of ligand binding, Adrenergic α2B
# [10] = compound at 0.1 μM, [3H]Rauwolscine, repeat assays, each datapoint shown, read-out: Percentage inhibition of ligand binding, Adrenergic α2B
# [11] = compound at 0.1 μM, [3H]Prazosin, repeat assays, each datapoint shown, 0.1 µM
# [12] = compound at 0.1 μM, [3H]Prazosin, repeat assays, each datapoint shown, read-out: Percentage inhibition of ligand binding, Adrenergic α1B
# [13] = read-out: Percentage inhibition of ligand binding, Adrenergic α2A (0.1 μM), compound at 0.1 μM, [3H]MK-912, repeat datapoints each shown
# [14] = [3H]MK-912, repeat datapoints each shown
# [15] = 0.03 μM compound, read-out: Percentage inhibition of ligand binding, Adrenergic α2B
# [16] = 0.1 μM compound, read-out: Percentage inhibition of ligand binding, Adrenergic α2A
# [17] = 0.1 μM compound, read-out: Percentage inhibition of ligand binding, Adrenergic α1B
smiles,measurement,setting,value
"Cc1ccc2c(c1)c1c(n2CC(C)c2ccc(F)cc2)CCN(C)C1 (single isomer, unassigned) [288a]",inhibition at 0.1 µM,"[1]; 0.1 μM compound, read-out: Percentage inhibition of ligand binding, Adrenergic α2B",104%
same,"Percentage inhibition of ligand binding, Adrenergic α1D","[2]; 0.1 μM compound, 0.1 µM",88%
CCCCC(O)(Cn1c2c(c3cc(Cl)ccc31)CN(C)CC2)c1ccc(F)cc1 (stereo not drawn) [33a],inhibition at 0.1 µM,[2]; [5],23%
CCC(O)(Cn1c2c(c3cc(Cl)ccc31)CN(C)CC2)c1ccc(F)cc1 (stereo not drawn) [II-160],inhibition at 0.03 µM,[1]; [6],39%
same,inhibition at 0.1 µM,[1]; [7],35%
same,"Percentage inhibition of ligand binding, Adrenergic α1B (0.1 μM)","[3]; compound at 0.1 μM, [3H]Prazosin, repeat datapoints each shown, 0.1 µM",14%
same,inhibition at 0.1 µM,[3]; [8],7%
same,inhibition at 0.1 µM,"[2]; read-out: Percentage inhibition of ligand binding, Adrenergic α1D (0.1 μM), compound at 0.1 μM, [3H]Prazosin, repeat datapoints each shown",15%
Cc1ccc2c(c1)c1c(n2CC(C)(O)c2ccncc2)CCN(C)C1 (stereo not drawn) [compound 2],inhibition at 0.03 µM,[1]; [9],75%
same,inhibition at 0.1 µM,[1]; [10],95%
same,"Percentage inhibition of ligand binding, Adrenergic α1B",[3]; [11],28%
same,inhibition at 0.1 µM,[3]; [12],27%
same,inhibition at 0.1 µM,[2]; [5],13%
Cc1ccc2c(c1)c1c(n2CC(O)c2ccc(F)cc2)CCN(C)C1 (stereo not drawn) [compound 30],inhibition at 0.1 µM,[1]; [10],91%
same,inhibition at 0.1 µM,[2]; [5],49%
"Cc1cnc2c(c1)c1c(n2CCc2ccc(C)nc2)CCN2CCCC12 (stereo not drawn) [compound 74, 10-methyl-7-(2-(6-methylpyridin-3-yl)ethyl)-2,3,5,6,7,11c-hexahydro-1H-pyrido[3′,2′:4,5]pyrrolo[2,3-g]indolizine]",inhibition at 0.1 µM,[1]; [10],104%
same,"Percentage inhibition of ligand binding, Adrenergic α2A","[4]; compound at 0.1 μM, [3H]MK-912, repeat assays, each datapoint shown, 0.1 µM",6%
same,inhibition at 0.1 µM,[2]; [5],57%
"Cc1ccc2c(c1)c1c(n2C2=C(c3cn[nH]c3)CCC2)CCN(C)C1 [compound 77, 5-(2-(1H-pyrazol-4-yl)cyclopent-1-enyl)-2,8-dimethyl-2,3,4,5-tetrahydro-1H-pyrido[4,3-b]indole]",inhibition at 0.03 µM,[1]; [9],84%
same,inhibition at 0.1 µM,[1]; [10],91%
same,"Percentage inhibition of ligand binding, Adrenergic α1B",[3]; [11],6%
same,inhibition at 0.1 µM,[3]; [12],5%
same,inhibition at 0.1 µM,[2]; [5],10%
"Cc1ccc2c(c1)c1c(n2CC(N)c2ccc(C(N)=O)nc2)CCN(C)C1 (stereo not drawn) [compound 157, 5-[1-amino-2-(2,8-dimethyl-1,2,3,4-tetrahydro-pyrido[4,3-b]indol-5-yl)-ethyl]-pyridine-2-carboxylic acid amide]",inhibition at 0.03 µM,[1]; [6],43%
same,inhibition at 0.1 µM,[4]; [13],6%
same,inhibition at 0.1 µM,[3]; [8],57%
Cc1cnc2c(c1)c1c(n2CC(N)c2ccncc2)CCNC1 (stereo not drawn) [compound 158],inhibition at 0.03 µM,[1]; [6],43%
same,inhibition at 0.1 µM,[4]; [13],-1%
same,inhibition at 0.1 µM,[3]; [8],8%
Cc1ccc2c(c1)c1c(n2CC(O)c2ccnc(C(=O)O)c2)CCN2CCCC12 (stereo not drawn) [compound 168],inhibition at 0.03 µM,[1]; [6],32%
same,inhibition at 0.1 µM,[4]; [13],16%
same,inhibition at 0.1 µM,[3]; [8],23%
"Cc1ccc2c(c1)c1c(n2CC(C)(O)c2ccc(C(=O)O)nc2)CCN(C)C1 (stereo not drawn) [compound 169, 5-(1-(1,2,3,4-tetrahydro-2,8-dimethylpyrido[4,3-b]indol-5-yl)-2-hydroxypropan-2-yl)pyridine-2-carboxylic acid]",inhibition at 0.03 µM,[1]; [6],20%
same,inhibition at 0.1 µM,[4]; [13],15%
same,inhibition at 0.1 µM,[3]; [8],2%
Cc1ccc2c(c1)c1c(n2CC(C)(O)c2cnccc2C(=O)O)CCN(C)C1 (stereo not drawn) [compound 179],inhibition at 0.03 µM,[1]; [6],8%
same,inhibition at 0.1 µM,[4]; [13],6%
same,inhibition at 0.1 µM,[3]; [8],6%
CN1CCc2c(c3c(Cl)cccc3n2CCc2ccccc2)C1 [compound 214],Ki,[1]; read-out: Ki α2B,12.9 nM
same,inhibition at 0.03 µM,[1]; [6],48%
same,inhibition at 0.1 µM,[1]; [7],80%
same,Ki,[4],22.7 nM
same,"Percentage inhibition of ligand binding, Adrenergic α2A (0.1 μM)","[4]; compound at 0.1 μM, [3H]MK-912, repeat datapoints each shown, 0.1 µM",64%
same,inhibition at 0.03 µM,[4]; [14],37%
same,inhibition at 0.1 µM,[4]; [13],58%
same,inhibition at 0.1 µM,[3]; [8],18%
CN1CCc2c(c3cc(Cl)ccc3n2CCc2ccc(F)cc2)C1 [compound 217],inhibition at 0.1 µM,[1]; [7],102%
same,inhibition at 0.1 µM,[4]; [13],74%
same,inhibition at 0.1 µM,[3]; [8],62%
CN1CCc2c(c3cc(F)ccc3n2CCc2ccc(F)cc2)C1 [compound 219],inhibition at 0.03 µM,[4]; [14],69%
same,inhibition at 0.03 µM,"[2]; read-out: Percentage inhibition of ligand binding, Adrenergic α1D (0.03 μM), compound at 0.03 μM, [3H]Prazosin, repeat datapoints each shown",3%
CN1CCc2c(c3cc(Cl)ccc3n2CC(O)(c2ccc(F)cc2)C2CC2)C1 (stereo not drawn) [compound 223],inhibition at 0.03 µM,[1]; [6],47%
same,inhibition at 0.1 µM,[4]; [13],69%
same,inhibition at 0.1 µM,[3]; [8],21%
Cc1cnc2c(c1)c1c(n2CCc2ccc(F)cc2)CCN2CCCC12 (stereo not drawn) [compound 336],inhibition at 0.03 µM,[1]; [15],104%
same,inhibition at 0.1 µM,[4]; [16],66%
same,inhibition at 0.1 µM,[3]; [17],98%
"CCCCCCC(=O)OC(Cn1c2c(c3cc(C)ccc31)CN(C)CC2)c1ccncc1 (stereo not drawn) [compound 338, heptanoic acid 2-(2,8-dimethyl-1,2,3,4-tetrahydro-pyrido[4,3-b]indol-5-yl)-1-pyridin-4-yl-ethyl ester]",inhibition at 0.03 µM,[1]; [15],102%
same,inhibition at 0.1 µM,[4]; [16],60%
same,inhibition at 0.1 µM,[3]; [17],16%
